Data on 4 molecules can be found in patent publication US20120141432A1, “USE OF CATALYTIC ANTIOXIDANT TO PRESERVE STEM CELL PHENOTYPE AND CONTROL CELL DIFFERENTIATION” (University of Pittsburgh- Of the Commonwealth System of …, priority 2010, published 2012).

Entries after “also recorded” stand apart in the source; their conditions may differ.

Assay type in all cases: cell-based
The subject of data set [1] is muscle stem cells. The data set can be described thus: ROS in muscle stem cells grown with FGF-2. The note with it: cells grown with FGF-2 vs absence of FGF-2, FIG. 5C. The source says: FIGS. 5A-5D are bar graphs, a plot and an electronic image showing that oxidative stress decreases cell viability (FIG. 5A) and myogenic differentiation capacity (FIG. 5B). […] FIG. 5D is an electronic image of muscle cells showing that myosin (staining) declines as ROS increases.

The subject of data set [2] is human skMSC. The data set can be described thus: Growth factor dose response of human skMSC by time-lapsed imaging. Particulars: for number of muscle stem cells: after 3 days in 100 ng/mL, vs lower doses and unstimulated controls; for response of human skMSC to growth factor: time-lapsed imaging.
Data set [3] has as its system human skMSC. The data set can be described thus: BrdU pulse detection of nondividing cells. The note with it: 3 days exposure, BrdU pulse 36 hours, P=0.01. The method, then:
Nondividing cells were also detected within the human muscle cell population in the context of GF-dose-dependent studies. […] The cells were pulsed with BrdU for 36 hours (division time=19±4 hrs) immunostaining was performed to detect labeled and unlabeled cells.

Data set [4] has as its system muscle stem cells. Put plainly: Growth rate of muscle cells after CFSE labeling. Particulars: 0 μM, 1 μM or 5 μM CFSE, FIG. 7B. How it is done:
Cells were stained at 1.0 μM, and then analyzed at 0, 2, and 5 days. Note that the low fluorescence intensity approaches that of unstained cells by day 5. FIG. 7D is a plot of sample lineage trees showing the presence of dividing and non-dividing cells. FIG. 7E is a set of plots showing that 24 hours after injection into mdx mice, CFSE-labeled cells are detectable.
Both time-lapsed imaging and FACS sorting were applied to the quiescent population using used cytoplasmic tracking dyes, used 5-6-carboxyfluorescein diacetate, succinimdyl ester, CFSE, and a similar molecule, CMFDA. Once cell permeable CFDA-SE is taken up by cells, intracellular esterases in the cytoplasm cleave acetate groups and convert CFDA to fluorescent CFSE. It was first confirmed that CFSE is impermeable; it was not taken in by unlabeled neighboring cells when CFSE-positive cells die (FIG. 7A). An approach was developed to use CFSE as an effective method for labeling of muscle cells.

Another data set has as its system stem cells. Put plainly: Rescue from hydrogen peroxide-induced cell death. The source says:
In other words, contacting stem cells with catalytic antioxidants allows the stem cells to proliferate (e.g. increase their numbers) without differentiating and losing the characteristics of stem cells, such as the phenotypic characteristics that distinguish stem cells from other cells. […] Thus, as disclosed herein contacting stem cells with catalytic antioxidants permits in vitro expansion of stem cells while delaying or inhibiting the differentiation of the stem cells, as well as protecting the stem cells from oxidative stress induced cell death.

The test system of data set [5] is human umbilical cord mesenchymal stem cells. The data set can be described thus: Osteogenic differentiation of umbilical cord mesenchymal stem cells (ALP staining). The note with it: 34 μM, BMP4 0, 0.1 or 10 ng/mL, vs control with no antioxidant, FIG. 3. How it is done:
The cells were contacted with the catalytic antioxidant at a concentration of 34 μM and bone morphogenic protein (BMP4) at concentrations of 0, 0.1, or 10 ng/mL.
Umbilical cord mesenchymal stem cells (UC-MSCs) were isolated and cultured. Cells were plated in the presence and absence of catalytic antioxidant. Live cell time-lapsed imaging was used to examine proliferation and apoptosis; images were analyzed using custom software obtained from Kairos Instruments. Osteogenic differentiation was stimulated using previously described methods; Alkaline Phosphatase (ALP) staining was used to determine stem cell differentiation (see Schugar et al., J Biomed Biotechnol 2009, 789526 (2009)). Cell phenotype was examined by flow cytometry (Schugar et al., J Biomed Biotechnol 2009, 789526 (2009)). Levels of intracellular reactive oxygen species were examined using dihydroxyrhodamine 123.

For data set [6], the system named is muscle stem cells. The data set can be described thus: Division time, cell growth and proliferation of muscle stem cells. How it is done: (§1) FIGS. 2A and 2B are a set of bar graphs showing the effect of the catalytic antioxidant FBC-007 on the differentiation of muscle stem cells. The effect of FBC-007 at a concentration of 34 μM was measured on the myogenic differentiation of muscle stem cells. Differentiation was determined as the % of nuclei located within myosin positive myotubes and multinucleated myotubes.
In Vitro Live Cell Imaging (LCI) to study Quiescent Nondividing cells. In vitro LCI is used to measure the fraction or proportion which is quiescent and nondividing after cytokine stimulation. The LCI system is unique in providing time-lapse images to characterize the cell populations. Using CytoTracker, DataCollector, and informatics tools, the growth rates of the populations are determined as described previously (Deasy et al., Stem Cells 20, 50-60 (2002)). In this way subpopulations or individual cells can be quantified. The combined the cell growth counts and the data of cell division time is used to calculate the size of the non-dividing fraction via a non-exponential Sherley equation (Sherley et al., Cell Prolif. 28, 137-44 (1995)).

Data set [7] relates to muscle stem cells. Put plainly: Myogenic differentiation of muscle stem cells (% of nuclei within myosin positive myotubes). How it is done:
as §1
In vitro Myogenic Differentiation: Cell populations from 3 different time points (<5 PDs, midpoint PDs, and maximal expansion) are evaluated. Briefly cells are plated at high density of 2000 cells/cm^2 in a low serum medium. After 3-4 days in culture, the media is changed to low serum or 2% serum medium. After day 7, immunocytochemical staining is performed to reveal fast myosin heavy chain (MyHC) expression. Methanol-fixed cultures are blocked with 5% HS and incubated with monoclonal mouse anti-MyHC (Sigma, 1:250, Sigma), biotinylated IgG (1:250, Vector), and streptavidin-Cy3 (1:500). […] In vitro differentiation efficiency is calculated as the ratio of myogenic nuclei to total nuclei.

Where [8] appears, read: stem cell cultures, muscle stem cell and mesenchymal stem cells.

As to “FGF-2: FGF-2 (basic fibroblast growth factor, bFGF)”, the “reactive oxygen species (ROS)” value in the data set with muscle stem cells [1] is listed as “increase in some muscle stem cells”. Moreover, in the data set with human skMSC [2], the “number of muscle stem cells” value is given as “significantly more muscle stem cells” and the “response of human skMSC to growth factor” value was “dose-dependent response”.
In the case of IGF-1: Insulin-like growth factor 1, in the data set on human skMSC [2], the “number of muscle stem cells” value is on record as “significantly more muscle stem cells” and the “response of human skMSC to growth factor” value was “dose-dependent response”. The “nondividing cells (BrdU [−])” value with human skMSC [3] is listed as “significantly fewer nondividing cells”.
As for “carboxyfluorescein diacetate succinimidyl ester [CFSE]”, in the data set on muscle stem cells [4], the “growth rates after CFSE treatment” value is listed as “does not affect growth rates”.
Consider `CC[n+]1ccccc1-c1c2nc(c(-c3cccc[n+]3CC)c3ccc([n-]3)c(-c3cccc[n+]3CC)c3nc(c(-c4cccc[n+]4CC)c4ccc1[n-]4)C=C3)C=C2.[Mn+3]` [FBC-007, Mn(III)tetrakis(N-ethylpyridinium-2-yl)porphyrin], for which the “hydrogen peroxide-induced cell death” value in the data set on stem cells is given as “can rescue the stem cells”. Besides, the osteogenic differentiation result in data set [5] was “reduced osteogenic differentiation”. Further, the “division time of the muscle stem cells” value in the data set with muscle stem cells [6] (FBC-007 34 μM, FIG. 2B) was “does not show a statistically significant change”. In addition, the cell growth result in the data set on muscle stem cells [6] (FIGS. 6A and 6B) was “did not affect cell growth; also recorded: does not affect cell growth”. Moreover, in the data set on muscle stem cells [6] (setting [8]), the “proliferation of the stem cells” value is recorded as “without affecting the proliferation”. Moreover, the “myogenic differentiation (% of nuclei located within myosin positive myotubes and multinucleated myotubes)” value with muscle stem cells [7] (FBC-007 34 μM vs controls without antioxidant, FIG. 2A) is on record as “reduced levels of differentiation relative to controls”. For the same molecule, the uninduced myogenic differentiation entry in the data set on muscle stem cells [7] (absence of growth factor (GF) stimulation, FIG. 6C) is on record as “prevents uninduced myogenic differentiation”. Besides, in the data set with muscle stem cells [7] (setting [8]), the “myogenic differentiation in stem cell cultures” value was “inhibits the myogenic differentiation”.
